Experimental data published in paper PMC12332157, “A preclinical study on the influence of linkers in [^68Ga]Ga-NOTA-X-RM26 radiotracers for PET imaging of GRPR expression” (EJNMMI Research, 2025).
Starred links: 1 amine or outer side, 2 acyl side, 3 side chain; linkers in the order of their positions; H or OH if unused. Non-standard residues stand in square brackets, D forms with d. Residues, ends and D or L forms follow the SMILES beside them. *: point of attachment. NOTA = O=C(O)CN1CCN(CC(=O)O)CCN(CC(=O)*)CC1; Sta = CC(C)C[C@H](N)[C@@H](O)CC(=O)O; X2 = O=C(COc1cccc(CN[*:1])c1)[*:2]

Test system: PC-3 xenografts
Test: PET/CT imaging of mice bearing PC-3 xenografts
Type: in vivo
Settings: 2 h post injection, 100 pmol i.v.
Experimental: For PET/CT imaging, animals bearing PC-3 xenografts were used. The animals received a single intravenous injection of the corresponding ^68Ga-radiolabeled peptide (100 pmol, 1.2 MBq) and 2 h post injection they were euthanized using CO2. For image acquisition, Nano PET 3T (PET/MRI) and nanoScan (SPECT/CT) (Mediso Medical Imaging Systems, Budapest, Hungary) tomographs were used. Reconstruction of the PET scans was conducted using Nucline nanoScan 3.04.014.0000 software. CT data were reconstructed using Filter Back Projection in Nucline 2.03 Software (Mediso Medical Imaging Systems Ltd., Budapest, Hungary). For their fusion, Nucline 2.03 Software was used, and PET images are presented as maximum intensity projections (MIP) with an equivalent color scale.

- uptake in PC-3 tumors on PET images: lower uptake
SMILES: CC(=O)N[C@@H](CCCCNC(=O)CN1CCN(CC(=O)O)CCN(CC(=O)O)CC1)C(=O)NCc1cccc(OCC(=O)N[C@H](Cc2ccccc2)C(=O)N[C@@H](CCC(N)=O)C(=O)N[C@@H](Cc2c[nH]c3ccccc23)C(=O)N[C@@H](C)C(=O)N[C@H](C(=O)NCC(=O)N[C@@H](Cc2c[nH]cn2)C(=O)N[C@@H](CC(C)C)[C@@H](O)CC(=O)N[C@@H](CC(C)C)C(N)=O)C(C)C)c1 [NOTA-mMA-RM26] (Ac-K(NOTA)[X2][dF]QWAVGH[Sta]L-NH2)
